One experiment deals with non-diabetic Wistar rats. Put plainly: Oral glucose tolerance test (OGTT), hypoglycaemic activity in non-diabetic Wistar rats. The settings on record: 10 mg/kg per os 1 hour before OGTT (glucose 2 g/kg per os). In kind it is in vivo, rat.
A further experiment has as its system STZ Wistar rats. Put plainly: Oral glucose tolerance test (OGTT), hypoglycaemic activity in STZ (streptozotocin) Wistar rats. In kind it is in vivo, rat. The settings on record: 10 mg/kg per os 1 hour before OGTT (glucose 2 g/kg per os). On the procedure: The hypoglycaemic activity of the compounds of the invention was examined in three-month-old male Wistar rats weighing about 250 g. An experimental diabetes is obtained by the iv injection, under ketamine hydrochloride anaesthesia, of a low dose of streptozotocin (35 mg/kg iv) dissolved in a citrate buffer. Such rats are called STZ rats and are characterised by a slight basal hyperglycaemia, a marked intolerance to glucose and a clear change in the secretion of insulin.
Homeostasis was evaluated by a glucose tolerance test, carried out two weeks after injection with streptozotocin.
(§1) Oral Glucose Tolerance Test (OGTT)
(§2) Glucose is administered per os (2 g/kg) to conscious rats. Blood samples are collected before and 10, 20, 30, 40, 60, 90 and 120 minutes after the glucose administration.
(§3) The product to be tested is administered per os 1 hour before the OGTT, and the control animals receive solvent (gum arabic).

The test system of another experiment is Zucker rats. In words: Oral glucose tolerance test (OGTT), hypoglycaemic activity in Zucker fatty fa/fa rats. The settings on record: 10 mg/kg per os 1 hour before OGTT (glucose 2 g/kg per os). The class given is in vivo, rat. As to the method: Finally, the hypoglycaemic activity was evaluated in “Zucker” rats. “Zucker fatty” fa/fa rats arose following a spontaneous mutation of the 13M strain (Zucker & Zucker, 1961), and are genetically insulin-resistant and obese.
Their obesity can be observed from the age of four weeks, and is thus accompanied by insulin resistance, hyperinsulinaemia and hyperlipidaemia. […] Homeostasis was evaluated likewise by a glucose tolerance test.
as §1, §2, §3

The test system of a further experiment is obese ob/ob mouse. In words: Hypolipaemic activity in the obese ob/ob mouse. In kind it is in vivo. Particulars: oral route 30 mg/kg/day for 4 days, treated vs. untreated animals. On the procedure:
The products of the invention were tested in vivo in the obese ob/ob mouse, used as a model of obesity-associated insulin resistance. […] In this model, the compounds of the invention are thus shown also to be powerful hypolipaemics.

The target in a further experiment is T1, serotonin reuptake sites (Rattus norvegicus, UniProt P31652).
T1 construct: The membranes from the rat frontal cortex are prepared and incubated in triplicate; from tissue; host or cells: rat frontal cortex membranes
In words: Affinity for serotonin reuptake sites, competition with [3H]-paroxetine on rat frontal cortex membranes. Particulars: 0.25 nM [3H]-paroxetine, 2 hours, 25° C. In kind it is binding. On the procedure: The affinity of the compounds of the invention was determined by competition experiments with [^3H]-paroxetine. The membranes from the rat frontal cortex are prepared and incubated in triplicate for 2 hours, at 25° C., with 0.25 nM [^3H]-paroxetine and the cold ligand in a final volume of 0.4 ml. The incubation buffer contains 50 mM TRIS-HCl (pH 7.4), 120 mM NaCl and 5 mM KCl. The non-specific binding is determined using 10 μM citalopram. At the end of incubation, the medium is filtered through filters and washed three times with 5 ml of cooled buffer. The radioactivity retained on the filters is determined by liquid scintillation counting. The binding isotherms are analysed by non-linear regression in order to determine the IC50 values.

What is called pIC50 is −log10 of the IC50, conventionally taken in molar units. Higher therefore signals a low IC50.

pIC50: −log10 of the molar value.

T1 sequence (P31652 whole entry): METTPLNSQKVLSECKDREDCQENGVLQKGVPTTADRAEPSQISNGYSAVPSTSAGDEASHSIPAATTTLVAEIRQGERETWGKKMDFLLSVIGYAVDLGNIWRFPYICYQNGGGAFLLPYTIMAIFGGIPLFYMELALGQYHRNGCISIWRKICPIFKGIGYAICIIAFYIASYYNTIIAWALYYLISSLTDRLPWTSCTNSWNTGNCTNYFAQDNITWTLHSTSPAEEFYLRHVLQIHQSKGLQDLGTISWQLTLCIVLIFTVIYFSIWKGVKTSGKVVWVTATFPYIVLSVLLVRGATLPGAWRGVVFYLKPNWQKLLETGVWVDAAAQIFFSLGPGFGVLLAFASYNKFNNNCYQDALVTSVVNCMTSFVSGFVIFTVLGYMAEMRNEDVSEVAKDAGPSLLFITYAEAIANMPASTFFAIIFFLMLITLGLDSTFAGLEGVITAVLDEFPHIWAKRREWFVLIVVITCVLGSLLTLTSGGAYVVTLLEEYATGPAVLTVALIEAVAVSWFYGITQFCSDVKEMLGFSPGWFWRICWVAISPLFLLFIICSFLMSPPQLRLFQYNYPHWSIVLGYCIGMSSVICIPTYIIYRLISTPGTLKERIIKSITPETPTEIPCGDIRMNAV

Take `CC1CNC(C(c2ccsc2)C2CCCCC2)=N1` (stereo not drawn) [Example 6, 2-[Cyclohexyl(3-thienyl)methyl]-4-methyl-4,5dihydro-1H-imidazole]: the reduces glycaemia stood at 13% in the experiment on non-diabetic Wistar rats, 18% with STZ Wistar rats and 14% in the experiment with Zucker rats. Also, the lowers the triglycerides with obese ob/ob mouse is 32%.
On serotonin reuptake sites, `c1ccc(C(C2=NCCN2)C2CCCCC2)cc1` (stereo not drawn) [2-[cyclohexyl(phenyl)methyl]-4,5-dihydro-1H-imidazole, reference compound] gave a pIC50 of 6.82.
As to `c1cc(C(C2=NCCN2)C2CCCCC2)cs1` (stereo not drawn) [Example 3, 2-[Cyclohexyl(3-thienyl)methyl]-4,5-dihydro-1H-imidazole], the pIC50 at serotonin reuptake sites is 5.70.

For the origin of these results see patent US6875788B2, “Imidazoline compounds” (Les Laboratoires Servier, priority 2002, dated 2005).
